The text below walks through data of EP0351597A2, “"N15-alkyl and N15,N15-di-alkyl derivatives of teicoplanin antibiotics carrying functional groups on the alkyl side chain” (GRUPPO LEPETIT S.p.A., priority 1988, dated 1990).

In brackets after ≈: the same amount, converted by molar mass. Where two headings read alike, the source gives them in different places.

Data set [1] deals with P. vulgaris X19H ATCC 881. Briefly: In vitro antibacterial activity (MIC), standard dilution test. In kind it is cell-based.
The subject of the next data set is S. aureus Tour. Described as above. In kind it is cell-based. An excerpt:
Isosensitest broth (Oxoid) and Todd-Hewitt broth (Difco) are used for growing staphylococci and streptococci, respectively. […]

A further data set has as its system P. aeruginosa ISM. Described as above. The class given is cell-based.
For another data set, the system named is S. faecalis ATCC 7080. Described as above. In kind it is cell-based. As for the experimental part: (§1) Isosensitest broth (Oxoid) and Todd-Hewitt broth (Difco) are used for growing staphylococci and streptococci, respectively. Broth cultures are diluted so that the final inoculum is about 10⁴ colony forming units/ml (CFU/ml).
Data set [2] concerns S. epidermidis ATCC 12228. Described as above. In kind it is cell-based. The protocol:
as §1

For the next data set, the system named is S. pyogenes C203. The description is as above. In kind it is cell-based. The protocol: as §1
The subject of the next data set is S. pneumoniae UC41. The description is as above. In kind it is cell-based. As for the experimental part:
as §1

A further data set deals with S. haemolyticus L 602. The description is as above. The class given is cell-based. The protocol: as §1
In the next data set the test system is E. coli SKF 12140. The data set is described as above. In kind it is cell-based.
Another data set has as its system S. pyogenes L 49. Briefly: In vivo test in mice experimentally infected with S. pyogenes L 49 (ED50). As for the experimental part:
The ED₅₀ values (mg/Kg) of representative compounds of the invention in vivo tests in mice experimentally infected with S. pyogenes L 49 and reported in Table V were carried out according to the procedure described by V. Arioli et al., Journal of Antibiotics 29, 511 (1976).

The nature of another data set: Acid-base titration. The class given is physicochemical. The following applies: Methylcellosolve/H₂O, 4/1 (v/v); titrated with 0.01 N NaOH after adding 0.01 N HCl.
The mark [3] stands for this setting: Proteus vulgaris, ATCC881, read-out: MIC.
Where [4] appears, read: Staphylococcus aureus, S. aureus Tour 10^4, read-out: MIC.
Setting [5] is: Staphylococcus aureus, S. aureus Tour 10^6, read-out: MIC.
[6] abbreviates: Staphylococcus aureus, S. aureus Tour + 30% bovine serum, read-out: MIC.
Setting [7] is: Pseudomonas aeruginosa, read-out: MIC.
Where [8] appears, read: Enterococcus faecalis, ATCC7080, read-out: MIC.
Where [9] appears, read: Staphylococcus epidermidis, ATCC12228, read-out: MIC.
Setting [10] is: Streptococcus pyogenes, read-out: MIC.
Where [11] appears, read: Streptococcus pneumoniae, read-out: MIC.
The mark [12] stands for this setting: Staphylococcus haemolyticus, L602, S. haemolyticus L 602, no visible growth after 18-24 h at 37°C, inoculum about 10⁴ CFU/ml, read-out: MIC.
[13] abbreviates: Escherichia coli, SKF12140, read-out: MIC.
[14] abbreviates: Streptococcus pyogenes, L49, sc, S. pyogenes L 49, s.c., read-out: ED50.
Setting [15] is: S. aureus Tour + 30% bovine serum.
The mark [16] stands for this setting: S. haemolyticus L 602, no visible growth after 18-24 h at 37°C, inoculum about 10⁴ CFU/ml.

Turning to `CC(CO)NC1C(=O)NC2Cc3ccc(c(Cl)c3)Oc3cc4cc(c3O)Oc3ccc(cc3Cl)C(O)C3NC(=O)C(NC(=O)C4NC(=O)C(NC2=O)c2cc(O)cc(c2)Oc2cc1ccc2O)c1ccc(O)c(c1)-c1c(O)cc(O)cc1C(C(=O)O)NC3=O` (stereo not drawn) [Compound 7, N¹⁵-(1-methyl-2-hydroxy)ethyl teicoplanin aglycon], the MIC in data set [1] (setting [3]) is above 128 µg/mL; with S. aureus Tour (setting [4]) it was 0.06 µg/mL (≈ 0.0477 µM); in the data set on S. aureus Tour (setting [5]), 0.12 µg/mL (≈ 0.0955 µM); in the data set with S. aureus Tour (setting [6]), 1 µg/mL; with P. aeruginosa ISM (setting [7]), above 128 µg/mL; in the data set with S. faecalis ATCC 7080 (setting [8]) it was 0.25 µg/mL (≈ 0.199 µM). For the same molecule, the MIC in data set [2] (setting [9]) is 0.06 µg/mL (≈ 0.0477 µM); in the data set with S. pyogenes C203 (setting [10]) it was 0.12 µg/mL (≈ 0.0955 µM); with S. pneumoniae UC41 (setting [11]), 0.12 µg/mL (≈ 0.0955 µM); in the data set with S. haemolyticus L 602 (setting [12]) it was 0.5 µg/mL (≈ 0.398 µM); with E. coli SKF 12140 (setting [13]) it was above 128 µg/mL. Besides, in the data set on S. pyogenes L 49 (setting [14]), the median effective dose (ED50) amounted to 0.84 mg/kg.

“N¹⁵-(2,3-Dihydroxy)propyl teicoplanin [Compound 1]”: the MIC in [1] is above 128 microgram/ml; in the data set on S. aureus Tour (S. aureus Tour 10^4) it was 0.5 microgram/ml; with S. aureus Tour (S. aureus Tour 10^6) it was 2 microgram/ml; in the data set with S. aureus Tour (setting [15]), 2 microgram/ml; in the data set with P. aeruginosa ISM, above 128 microgram/ml; against S. faecalis ATCC 7080, 0.12 microgram/ml. The MIC in [2] is recorded as 0.25 microgram/ml; against S. pyogenes C203, 0.06 microgram/ml; against S. pneumoniae UC41 it was 0.25 microgram/ml; with S. haemolyticus L 602 (setting [16]) it was 32 microgram/ml; in the data set with E. coli SKF 12140 it was above 128 microgram/ml. This molecule also showed a pK₁ in the data set “Acid-base titration” of 4.7. Further, the pK₂ in the data set “Acid-base titration” was 6.

Turning to `CC(O)C(C)NC1C(=O)NC2Cc3ccc(c(Cl)c3)Oc3cc4cc(c3O)Oc3ccc(cc3Cl)C(O)C3NC(=O)C(NC(=O)C4NC(=O)C(NC2=O)c2cc(O)cc(c2)Oc2cc1ccc2O)c1ccc(O)c(c1)-c1c(O)cc(O)cc1C(C(=O)O)NC3=O` (stereo not drawn) [Compound 8, N¹⁵-(1-methyl-2-hydroxy)propyl teicoplanin aglycon], the MIC in data set [1] (setting [3]) is above 128 µg/mL; in the data set with S. aureus Tour (setting [4]) it was 0.12 µg/mL (≈ 0.0944 µM); in the data set with S. aureus Tour (setting [5]) it was 0.12 µg/mL (≈ 0.0944 µM); with S. aureus Tour (setting [6]), 2 µg/mL; in the data set with P. aeruginosa ISM (setting [7]), above 128 µg/mL; in the data set with S. faecalis ATCC 7080 (setting [8]) it was 0.12 µg/mL (≈ 0.0944 µM). Also, the MIC in data set [2] (setting [9]) is 0.06 µg/mL (≈ 0.0472 µM); in the data set with S. pyogenes C203 (setting [10]), 0.12 µg/mL (≈ 0.0944 µM); with S. pneumoniae UC41 (setting [11]), 0.25 µg/mL (≈ 0.197 µM); in the data set on S. haemolyticus L 602 (setting [12]) it was 0.5 µg/mL (≈ 0.393 µM); in the data set with E. coli SKF 12140 (setting [13]), above 128 µg/mL. In addition, in the data set on S. pyogenes L 49 (setting [14]), the ED50 turned out to be 0.86 mg/kg.

As to “N¹⁵-(2-dimethylamino)ethyl teicoplanin [Compound 3]”, the MIC in data set [1] was above 128 microgram/ml; with S. aureus Tour (S. aureus Tour 10^4) it was 0.125 microgram/ml; in the data set with S. aureus Tour (S. aureus Tour 10^6), 0.5 microgram/ml; in the data set on S. aureus Tour (setting [15]) it was 0.5 microgram/ml; against P. aeruginosa ISM, above 128 microgram/ml; against S. faecalis ATCC 7080 it was 0.125 microgram/ml. The MIC in [2] was 0.125 microgram/ml; with S. pyogenes C203 it was 0.125 microgram/ml; with S. pneumoniae UC41, 0.125 microgram/ml; in the data set with S. haemolyticus L 602 (setting [16]), 2 microgram/ml; against E. coli SKF 12140, above 128 microgram/ml. In the data set “Acid-base titration”, the pK₁ is 4.85. In “Acid-base titration”, this molecule registered a pK₂ of 6.2. In “Acid-base titration”, the pK₃ is given as 8.45. Besides, the ED50 was above 300 mg/kg in the data set with S. pyogenes L 49 (S. pyogenes L 49, o.s.) and 0.41 mg/kg in the data set with S. pyogenes L 49 (S. pyogenes L 49, s.c.).

Take “N¹⁵-(1-methyl-2-hydroxy)propyl) teicoplanin [Compound 2]”: the MIC in data set [1] is on record as above 128 microgram/ml; in the data set with S. aureus Tour (S. aureus Tour 10^4), 0.5 microgram/ml; against S. aureus Tour (S. aureus Tour 10^6), 1 microgram/ml; in the data set on S. aureus Tour (setting [15]) it was 2 microgram/ml; in the data set on P. aeruginosa ISM, above 128 microgram/ml; in the data set with S. faecalis ATCC 7080 it was 0.12 microgram/ml. The MIC is 0.25 microgram/ml in data set [2]; 0.06 microgram/ml in the data set with S. pyogenes C203; 0.25 microgram/ml in the data set with S. pneumoniae UC41; 16 microgram/ml against S. haemolyticus L 602 (setting [16]); above 128 microgram/ml with E. coli SKF 12140. The molecule also yielded a pK₁ in “Acid-base titration” of 5.05. This molecule showed a pK₂ in “Acid-base titration” of 6.35.

With `CN(C)CCNC1C(=O)NC2Cc3ccc(c(Cl)c3)Oc3cc4cc(c3O)Oc3ccc(cc3Cl)C(O)C3NC(=O)C(NC(=O)C4NC(=O)C(NC2=O)c2cc(O)cc(c2)Oc2cc1ccc2O)c1ccc(O)c(c1)-c1c(O)cc(O)cc1C(C(=O)O)NC3=O` (stereo not drawn) [Compound 5, N¹⁵-(2-dimethylamino)ethyl teicoplanin aglycon], the MIC in data set [1] (setting [3]) is above 128 µg/mL; in the data set on S. aureus Tour (setting [4]), 0.125 µg/mL (≈ 0.0984 µM); in the data set with S. aureus Tour (setting [5]), 0.125 µg/mL (≈ 0.0984 µM); in the data set on S. aureus Tour (setting [6]), 1 µg/mL; in the data set on P. aeruginosa ISM (setting [7]), above 128 µg/mL; in the data set with S. faecalis ATCC 7080 (setting [8]) it was 0.25 µg/mL (≈ 0.197 µM). The MIC in data set [2] (setting [9]) was 0.06 µg/mL (≈ 0.0472 µM); with S. pyogenes C203 (setting [10]), 0.25 µg/mL (≈ 0.197 µM); in the data set on S. pneumoniae UC41 (setting [11]), 0.125 µg/mL (≈ 0.0984 µM); against S. haemolyticus L 602 (Staphylococcus haemolyticus, L602) it was 0.5 µg/mL (≈ 0.394 µM); in the data set with E. coli SKF 12140 (setting [13]) it was above 128 µg/mL. The pK₁ in “Acid-base titration” is 4.75. The molecule further gave a pK₂ in the data set “Acid-base titration” of 6.5. In addition, the ED50 in the data set on S. pyogenes L 49 (setting [14]) is 1.25 mg/kg.

“N¹⁵-(2-methoxyethoxy)methyl teicoplanin [Compound 4]”: the MIC in [1] is given as above 128 microgram/ml; against S. aureus Tour (S. aureus Tour 10^4) it was 0.12 microgram/ml; against S. aureus Tour (S. aureus Tour 10^6), 0.5 microgram/ml; in the data set on S. aureus Tour (setting [15]), 1 microgram/ml; with P. aeruginosa ISM it was above 128 microgram/ml; against S. faecalis ATCC 7080 it was 0.125 microgram/ml. The MIC in [2] was 0.125 microgram/ml; with S. pyogenes C203, 0.06 microgram/ml; against S. pneumoniae UC41, 0.125 microgram/ml; in the data set with S. haemolyticus L 602 (setting [16]), 8 microgram/ml; against E. coli SKF 12140 it was above 128 microgram/ml.

Take “N¹⁵-(1-methyl-2-hydroxy)ethyl teicoplanin [Compound 6]”: the MIC in data set [1] was above 128 microgram/ml; against S. aureus Tour (S. aureus Tour 10^4) it was 0.25 microgram/ml; with S. aureus Tour (S. aureus Tour 10^6), 1 microgram/ml; with S. aureus Tour (setting [15]), 2 microgram/ml; with P. aeruginosa ISM, above 128 microgram/ml; against S. faecalis ATCC 7080, 0.12 microgram/ml. Besides, the MIC is on record as 0.5 microgram/ml in [2]; 0.12 microgram/ml with S. pyogenes C203; 0.25 microgram/ml with S. pneumoniae UC41; 1.6 microgram/ml against S. haemolyticus L 602 (setting [16]); above 128 microgram/ml against E. coli SKF 12140.

As usually defined, the ED50 is the dose that gives a 50% effect, or the effect in half of the subjects.
